Patent US20230066011A1, “PYRROLOPYRIMIDINE DERIVATIVE, AND PHARMACEUTICAL COMPOSITION FOR PREVENTING OR TREATING PROTEIN KINASE-RELATED DISEASE COMPRISING SAME AS ACTIVE INGREDIENT” (VORONOI CO., LTD., priority 2019, published 2023)
pIC50: −log10 of the molar value.

Assays:
human GST-DYRK1A = biological target: T1, human GST-DYRK1A (Homo sapiens, UniProt Q13627); experiment: GST-DYRK1A enzyme inhibition, ADP-Glo kinase assay; assay type: biochemical; conditions: ATP 10 μM, GST-DYRK1A full length, read-out: DYRK1 IC50
T1 construct: purified human GST-DYRK1A (full length, Thermo Scientifics) enzyme; purchased Thermo Scientifics
Summary of the method: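 Full-length human GST-DYRK1A (10 ng) with 10 μM ATP and specific substrate in 40 mM Tris-HCl pH 7.4, 20 mM MgCl2, 0.5 mg/mL BSA, 50 μM DTT, 1 h at 25 °C. ADP formation read by ADP-Glo luminescence relative to solvent control; IC50 from three data sets.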

human GST-CLK1 = biological target: T2, human GST-CLK1 (Homo sapiens, UniProt P49759); experiment: GST-CLK1 enzyme inhibition, ADP-Glo kinase assay; assay type: biochemical; conditions: ATP 10 μM, GST-CLK1 129-end
T2 construct: purified human GST-CLK1 (129-end, SignalChem) enzyme; purchased SignalChem
T2 sequence (P49759 129-484 limits assumed): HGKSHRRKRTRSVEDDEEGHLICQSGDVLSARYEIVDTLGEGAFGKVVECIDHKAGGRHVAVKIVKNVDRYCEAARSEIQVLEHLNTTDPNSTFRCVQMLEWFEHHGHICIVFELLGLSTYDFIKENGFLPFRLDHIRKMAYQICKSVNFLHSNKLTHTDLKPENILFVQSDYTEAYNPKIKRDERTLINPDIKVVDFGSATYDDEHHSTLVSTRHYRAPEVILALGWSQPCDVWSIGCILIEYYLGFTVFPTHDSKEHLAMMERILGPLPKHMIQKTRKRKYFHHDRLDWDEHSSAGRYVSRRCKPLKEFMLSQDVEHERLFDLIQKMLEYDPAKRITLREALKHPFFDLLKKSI
Summary of the method: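 Human GST-CLK1 (129-end, 3 ng) reacted with substrate and 10 μM ATP for 1 h at 25° C in 40 mM Tris-HCl pH 7.4, 20 mM MgCl2, 0.5 mg/mL BSA, 50 μM DTT. ADP-Glo luminescence was normalised to solvent control; IC50 (nM) from 3 data sets.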

MDA-MB-231 cell line = experiment: Inhibition of proliferation of MDA-MB-231 cancer cells (Cell Titer-Glo); assay type: cell-based; conditions: Homo sapiens, 72 hours
Summary of the method: (§1)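 Cells seeded at 2,000/well and exposed 72 h to 11 concentrations of compound (3-fold dilutions, final 10.000000 down to 0.000169 μM) in DMEM or RPMI. Viability read by Cell Titer-Glo luminescence after 10 min at room temperature; GI50 calculated from luminescence.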

MDA-MB-468 cell line = experiment: Inhibition of proliferation of MDA-MB-468 cancer cells (Cell Titer-Glo); assay type: cell-based; conditions: Homo sapiens, MDA-MB-468, 72 hours
Summary of the method: as §1

SHP-77 = experiment: Inhibition of proliferation of SHP-77 cancer cells (Cell Titer-Glo); assay type: cell-based; conditions: Homo sapiens, SHP77, 72 hours
Protocol: To evaluate an inhibitory effect on the proliferation of cancer cells, each of an MDA-MB-231 cell line (Korean Cell Line Bank #30026) and an MDA-MB-468 cell line as triple-negative breast cancer cell lines, and SHP-77 (ATCC #CRL-2195) as a small-cell lung cancer cell line was cultured in DMEM (HyClone #SH30243) or an RPMI medium (HyClone #SH3027.01) to analyze a cell growth rate. More specifically, a cell line was plated on a 96-well flat bottom plate (Corning #3903) at a density of 2,000 cells/100 μL per well, and then treated with 11 concentrations of the Example compound, a solution of which was diluted 3-fold so that a final concentration of the compound was 10.000000, 3.333333, 1.111111, 0.370370, 0.123457, 0.041152, 0.013717, 0.004572, 0.001524, 0.000508, and 0.000169 μM. After 72 hours, each of the culture media was treated with 100 μL of Cell Titer-Glo (Promega G7573), and then cultured at room temperature for 10 minutes. Then, a degree of luminescence was measured using a microplate reader. A GI50 value was calculated from the measured degree of luminescence using Prism (Version 8.2 GraphPad) software.

LRRK2 = LRRK2 (Homo sapiens, UniProt Q5S007); experiment: LRRK2 enzyme inhibition, ADP-Glo kinase assay; assay type: biochemical; design: purchased Invitrogen PR8604B; conditions: ATP 10 μM
LRRK2, sequence (Q5S007 970-2527 limits assumed): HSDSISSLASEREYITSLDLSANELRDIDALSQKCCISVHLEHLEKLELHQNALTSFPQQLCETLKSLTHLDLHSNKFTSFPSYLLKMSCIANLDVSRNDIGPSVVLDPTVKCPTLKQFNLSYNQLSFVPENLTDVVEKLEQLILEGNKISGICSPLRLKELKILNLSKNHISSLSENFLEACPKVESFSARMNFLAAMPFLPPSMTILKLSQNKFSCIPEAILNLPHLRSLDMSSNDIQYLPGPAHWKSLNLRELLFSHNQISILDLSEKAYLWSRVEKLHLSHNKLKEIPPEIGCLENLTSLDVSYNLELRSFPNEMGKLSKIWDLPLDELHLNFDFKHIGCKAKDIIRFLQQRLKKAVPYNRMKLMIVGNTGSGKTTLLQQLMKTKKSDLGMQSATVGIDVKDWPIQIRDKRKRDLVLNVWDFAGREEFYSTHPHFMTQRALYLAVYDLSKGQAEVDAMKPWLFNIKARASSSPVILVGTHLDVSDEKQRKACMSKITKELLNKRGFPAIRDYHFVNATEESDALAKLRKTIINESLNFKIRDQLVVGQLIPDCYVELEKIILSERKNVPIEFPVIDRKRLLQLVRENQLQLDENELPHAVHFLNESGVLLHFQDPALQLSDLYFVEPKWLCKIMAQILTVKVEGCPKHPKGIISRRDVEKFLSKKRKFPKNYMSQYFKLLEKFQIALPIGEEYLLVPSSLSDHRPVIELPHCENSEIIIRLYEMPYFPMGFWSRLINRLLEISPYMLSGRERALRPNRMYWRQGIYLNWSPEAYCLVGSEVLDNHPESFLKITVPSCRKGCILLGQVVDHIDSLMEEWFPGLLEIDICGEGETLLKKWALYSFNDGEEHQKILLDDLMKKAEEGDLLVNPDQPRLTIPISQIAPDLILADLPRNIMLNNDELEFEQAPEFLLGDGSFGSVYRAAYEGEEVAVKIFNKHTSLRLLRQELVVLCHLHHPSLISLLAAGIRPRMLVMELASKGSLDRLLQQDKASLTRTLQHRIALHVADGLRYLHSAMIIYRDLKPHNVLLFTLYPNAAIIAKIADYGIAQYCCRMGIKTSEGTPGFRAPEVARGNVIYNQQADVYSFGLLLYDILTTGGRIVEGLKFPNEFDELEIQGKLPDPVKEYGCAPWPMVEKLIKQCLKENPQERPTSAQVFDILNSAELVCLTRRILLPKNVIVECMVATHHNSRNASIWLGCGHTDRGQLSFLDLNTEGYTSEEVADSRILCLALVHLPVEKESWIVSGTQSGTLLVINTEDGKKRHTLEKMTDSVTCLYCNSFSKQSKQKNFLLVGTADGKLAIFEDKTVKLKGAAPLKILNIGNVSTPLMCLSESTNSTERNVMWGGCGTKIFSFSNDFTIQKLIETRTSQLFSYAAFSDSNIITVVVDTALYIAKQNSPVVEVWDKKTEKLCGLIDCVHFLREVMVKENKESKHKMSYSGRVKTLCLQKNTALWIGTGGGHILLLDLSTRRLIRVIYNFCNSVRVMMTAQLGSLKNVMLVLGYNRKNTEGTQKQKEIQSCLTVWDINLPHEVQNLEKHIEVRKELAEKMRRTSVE
Summary of the method: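 Purified human LRRK2 (25 ng) with 10 μM ATP and 0.2 μg substrate in 40 mM Tris-HCl pH 7.4, 20 mM MgCl2, 0.5 mg/mL BSA, 50 μM DTT, 2 h at 25° C. ADP-Glo luminescence; 12-point compound series from 50 μM final; IC50 relative to solvent control.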

LRRK2 (G2019S) = LRRK2 (G2019S) (Homo sapiens, UniProt Q5S007, G2019S); experiment: LRRK2 G2019S enzyme inhibition, ADP-Glo kinase assay; assay type: biochemical; design: purchased SignalChem L10-12GG; conditions: ATP 25 μM
LRRK2 (G2019S), sequence (Q5S007 970-2527 G2019S limits assumed): as the sequence (Q5S007 970-2527 limits assumed) above, with G1050S counted along it
Summary of the method: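 Purified human LRRK2 G2019S (16 ng) with 25 μM ATP and 0.2 μg substrate, 2 h at 25° C. in Tris-HCl pH 7.4, MgCl2, BSA, DTT buffer; compounds at 12 final concentrations, 50 μM down to 0.000001024 μM. ADP-Glo luminescence versus solvent control gave IC50.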

pIC50 (human GST-DYRK1A) | pIC50 (human GST-CLK1) | GI50 (MDA-MB-231 cell line) | GI50 (MDA-MB-468 cell line) | GI50 (SHP-77) | pIC50 (LRRK2) | pIC50 (LRRK2 (G2019S)) | Compound
6.00 to 6.52 | 6.00 to 6.52 | < 50 nM | 101 to 300 nM | < 50 nM | > 7.00 | 6.00 to 6.52 | COc1cc(S(=O)(=O)N2CCOCC2)ccc1Nc1nc(NC2CCCCC2)c2c(C#N)c[nH]c2n1 [Example 73]
6.00 to 6.52 | 6.00 to 6.52 | 51 to 100 nM | 101 to 300 nM | < 50 nM | – | – | COc1cc(S(=O)(=O)N2CCOCC2)ccc1Nc1nc(N[C@H]2CCOC2)c2c(C#N)c[nH]c2n1 [Example 75, (S)-2-((2-methoxy-4-(morpholinosulfonyl)phenyl)amino)-4-((tetrahydrofuran-3-yl)amino)-7H-pyrrolo[2,3-d]pyrimidine-5-carbonitrile]
6.00 to 6.52 | 6.00 to 6.52 | 51 to 100 nM | 51 to 100 nM | 101 to 300 nM | 6.52 to 7.00 | > 7.00 | COc1cc(S(=O)(=O)N2CCC(N3CCOCC3)CC2)ccc1Nc1nc(NC2CCCC2)c2c(C#N)c[nH]c2n1 [Example 90, 4-(cyclopentylamino)-2-((2-methoxy-4-((4-morpholinopiperidin-1-yl)sulfonyl)phenyl)amino)-7H-pyrrolo[2,3-d]pyrimidine-5-carbonitrile]
6.00 to 6.52 | 6.00 to 6.52 | 51 to 100 nM | 51 to 100 nM | < 50 nM | > 7.00 | > 7.00 | COc1cc(S(=O)(=O)N2CCC(N3CCOCC3)CC2)ccc1Nc1nc(NC2CCCCC2)c2c(C#N)c[nH]c2n1 [Example 91, 4-(cyclohexylamino)-2-((2-methoxy-4-((4-morpholinopiperidin-1-yl)sulfonyl)phenyl)amino)-7H-pyrrolo[2,3-d]pyrimidine-5-carbonitrile]
6.52 to 7.00 | > 7.00 | 301 to 1000 nM | – | 101 to 300 nM | > 7.00 | > 7.00 | COCCNc1nc(Nc2ccc(S(=O)(=O)N3CCC(N4CCOCC4)CC3)cc2OC)nc2[nH]cc(C(F)(F)F)c12 [Example 170, N^2-(2-methoxy-4-((4-morpholinopiperidin-1-yl)sulfonyl)phenyl)-N^4-(2-methoxyethyl)-5-(trifluoromethyl)-7H-pyrrolo[2,3-d]pyrimidine-2,4-diamine]
6.00 to 6.52 | 6.00 to 6.52 | 301 to 1000 nM | – | 101 to 300 nM | 6.00 to 6.52 | 6.00 to 6.52 | CC[C@@H](C)Nc1nc(Nc2ccc(S(=O)(=O)N3CCC(N4CCOCC4)CC3)cc2OC)nc2[nH]cc(C(F)(F)F)c12 [Example 172, (R)-N^4-(sec-butyl)-N^2-(2-methoxy-4-((4-morpholinopiperidin-1-yl)sulfonyl)phenyl)-5-(trifluoromethyl)-7H-pyrrolo[2,3-d]pyrimidine-2,4-diamine]
6.00 to 6.52 | 6.00 to 6.52 | 301 to 1000 nM | – | 101 to 300 nM | 6.00 to 6.52 | 6.00 to 6.52 | COCC(C)(C)Nc1nc(Nc2ccc(S(=O)(=O)N3CCOCC3)cc2OC)nc2[nH]cc(C(F)(F)F)c12 [Example 175, N^4-(1-methoxy-2-methylpropan-2-yl)-N^2-(2-methoxy-4-(morpholinosulfonyl)phenyl)-5-(trifluoromethyl)-7H-pyrrolo[2,3-d]pyrimidine-2,4-diamine]
6.00 to 6.52 | 6.00 to 6.52 | 301 to 1000 nM | – | 301 to 1000 nM | > 7.00 | 6.52 to 7.00 | COc1cc(S(=O)(=O)N2CCC(N3CCOCC3)CC2)ccc1Nc1nc(NC2CCC2)c2c(C(F)(F)F)c[nH]c2n1 [Example 183, N^4-cyclobutyl-N^2-(2-methoxy-4-((4-morpholinopiperidin-1-yl)sulfonyl)phenyl)-5-(trifluoromethyl)-7H-pyrrolo[2,3-d]pyrimidine-2,4-diamine]
6.00 to 6.52 | 6.00 to 6.52 | 301 to 1000 nM | – | 101 to 300 nM | 6.52 to 7.00 | 6.00 to 6.52 | CCNc1nc(Nc2ccc(S(=O)(=O)N3CCOCC3)cc2OC)nc2[nH]cc(C(F)(F)F)c12 [Example 191, N^4-ethyl-N^2-(2-methoxy-4-(morpholinosulfonyl)phenyl)-5-(trifluoromethyl)-7H-pyrrolo[2,3-d]pyrimidine-2,4-diamine]
6.00 to 6.52 | 6.00 to 6.52 | 301 to 1000 nM | – | 301 to 1000 nM | > 7.00 | 6.52 to 7.00 | COc1cc(S(=O)(=O)N2CCC(N3CCOCC3)CC2)ccc1Nc1nc(NCC2CCC2)c2c(C(F)(F)F)c[nH]c2n1 [Example 197, N^4-(cyclobutylmethyl)-N^2-(2-methoxy-4-((4-morpholinopiperidin-1-yl)sulfonyl)phenyl)-5-(trifluoromethyl)-7H-pyrrolo[2,3-d]pyrimidine-2,4-diamine]
6.00 to 6.52 | 6.00 to 6.52 | 301 to 1000 nM | – | 301 to 1000 nM | > 7.00 | 6.52 to 7.00 | CCCCNc1nc(Nc2ccc(S(=O)(=O)N3CCC(N4CCOCC4)CC3)cc2OC)nc2[nH]cc(C(F)(F)F)c12 [Example 202, N^4-butyl-N^2-(2-methoxy-4-((4-morpholinopiperidin-1-yl)sulfonyl)phenyl)-5-(trifluoromethyl)-7H-pyrrolo[2,3-d]pyrimidine-2,4-diamine]
